Measurements: patent publication US9540385B2, “Pyrrolopyrimidine compounds as kinase inhibitors” (Pharmacyclics LLC, priority 2012, dated 2017)

Legend:
Type in all cases: biochemical
Conditions in all cases: kinase assay by one of methods A, B or C
BTK = molecular target: T1, BTK (Homo sapiens, UniProt Q06187); assay: Btk in vitro inhibitory activity / inhibition of a panel of kinases (TR-FRET, mobility shift or radiometric filter binding)
T1 construct: purified from insect cells as a full-length construct containing a N-terminal 6×-His tag; His6 (N); made in house; host or cells: insect cells (baculovirus, Sf21)

LCK = LCK (Homo sapiens, UniProt P06239); assay: Inhibition of a panel of kinases: LCK
Description: (§1) Btk kinase activity is determined using a time-resolved fluorescence resonance energy transfer (TR-FRET) methodology. Measurements are performed in a reaction volume of 50 μL using 96-well assay plates. Kinase enzyme, inhibitor, ATP (at the Km for the kinase), and 1 μM peptide substrate (Biotin-AVLESEEELYSSARQ-NH2) are incubated in a reaction buffer composed of 20 mM Tris, 50 mM NaCl, MgCl2 (5-25 mM depending on the kinase), MnCl2 (0-10 mM), 1 mM DTT, 0.1 mM EDTA, 0.01% bovine serum albumin, 0.005% Tween-20, and 10% DMSO at pH 7.4 for one hour. The reaction is quenched by the addition of 1.2 equivalents of EDTA (relative to divalent cation) in 25 μL of 1× Lance buffer (Perkin-Elmer). Streptavidin-APC (Perkin-Elmer) and Eu-labeled p-Tyr100 antibody (Perkin-Elmer) in 1× Lance buffer are added in a 25 μL volume to give final concentrations of 100 nM and 2.5 nM, respectively, and the mixture is allowed to incubate for one hour. The TR-FRET signal is measured on a multimode plate reader with an excitation wavelength (λEx) of 330 nm and detection wavelengths (λEm) of 615 and 665 nm. Activity is determined by the ratio of the fluorescence at 665 nm to that at 615 nm. For each compound, enzyme activity is measured at various concentrations of compound. Negative control reactions are performed in the absence of inhibitor in replicates of six, and two no-enzyme controls are used to determine baseline fluorescence levels. Inhibition constants, Ki(app), ware obtained using the program BatchKi (Kuzmic et al. (2000), Anal. Biochem. 286:45-50). IC50s are obtained according to the equation: IC50={Ki(app)/(1+[ATP]/Km^ATP)}+[E]total/2;
(§2) For all kinases, [ATP]=Km^ATP, [Btk]total=0.5 nM and [Lck]total=6 nM.
(§3) Kinase activity is measured in vitro using electrophoretic mobility shift assay. The kinase reactions are assembled in a total volume of 25 μL in 384 well plates. The reactions comprise: BTK enzyme (1 nM, N-terminal His6-tagged, recombinant, full-length, human BTK purified from baculovirus Sf21 insect cell system), inhibitor, ATP ([…] the apparent Km for the kinase), fluorescently labeled peptide substrate (1 μM, FAM-GEEPLYWSFPAKKK-NH2) in a reaction buffer composed of 100 mM HEPES, pH7.5, 5 mM MgCl2 1 mM DTT, 0.1% bovine serum albumin, 0.01% Triton X-100, and 1% DMSO. The reaction is incubated for one hour and is quenched by the addition of 45 μL of termination buffer (100 mM HEPES, pH7.5, 0.01% Triton X-100, 30 mM EDTA). The terminated reactions are analyzed using 12 channel LabChip® 3000 microfluidic detection instrument (Caliper Life Sciences). The enzymatic phosphorylation of the peptide results in a change in net charge, enabling electrophoretic separation of product from substrate peptide. As substrate and product peptides are separated, two peaks of fluorescence are observed. Change in the relative fluorescence intensity of the substrate and product peaks is the parameter measured, reflecting enzyme activity. In the presence of an inhibitor, the ratio between product and substrate is altered: the signal of the product decreases, while the signal of the substrate increases.
(§4) Activity in each sample is determined as the product to sum ratio (PSR):P/(S+P), where P is the peak height of the product peptide and S is the peak height of the substrate peptide. For each compound, enzyme activity is measured at various concentrations (12 concentrations of compound spaced by 3× dilution intervals). Negative control samples (0%-inhibition in the absence of inhibitor) and positive control samples (100%-inhibition, in the presence of 20 mM EDTA) are assembled in replicates of four and are used to calculate %-inhibition values for each inhibitor at each concentration. Percent inhibition (Pinh) is determined using following equation: […]

EGFR = EGFR (Homo sapiens, UniProt P00533); assay: Inhibition of a panel of kinases: EGFR
Description: as §1, §2, §3, §4

Sequence of LCK (P06239 whole entry, species assumed): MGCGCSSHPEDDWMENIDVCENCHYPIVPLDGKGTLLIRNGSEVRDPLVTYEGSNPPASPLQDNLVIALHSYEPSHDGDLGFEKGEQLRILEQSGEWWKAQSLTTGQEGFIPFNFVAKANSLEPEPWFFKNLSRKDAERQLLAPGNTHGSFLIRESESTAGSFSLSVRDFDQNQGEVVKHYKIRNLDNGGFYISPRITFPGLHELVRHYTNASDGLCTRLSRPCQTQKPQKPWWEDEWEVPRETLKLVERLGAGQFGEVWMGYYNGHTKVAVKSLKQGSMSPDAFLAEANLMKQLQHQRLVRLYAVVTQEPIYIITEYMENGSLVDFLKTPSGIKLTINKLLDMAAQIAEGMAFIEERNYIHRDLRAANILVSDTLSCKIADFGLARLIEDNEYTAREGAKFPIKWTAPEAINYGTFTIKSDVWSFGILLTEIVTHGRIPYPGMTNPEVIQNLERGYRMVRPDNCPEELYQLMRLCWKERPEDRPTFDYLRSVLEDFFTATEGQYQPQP
Sequence of EGFR (P00533 25-1210, species assumed): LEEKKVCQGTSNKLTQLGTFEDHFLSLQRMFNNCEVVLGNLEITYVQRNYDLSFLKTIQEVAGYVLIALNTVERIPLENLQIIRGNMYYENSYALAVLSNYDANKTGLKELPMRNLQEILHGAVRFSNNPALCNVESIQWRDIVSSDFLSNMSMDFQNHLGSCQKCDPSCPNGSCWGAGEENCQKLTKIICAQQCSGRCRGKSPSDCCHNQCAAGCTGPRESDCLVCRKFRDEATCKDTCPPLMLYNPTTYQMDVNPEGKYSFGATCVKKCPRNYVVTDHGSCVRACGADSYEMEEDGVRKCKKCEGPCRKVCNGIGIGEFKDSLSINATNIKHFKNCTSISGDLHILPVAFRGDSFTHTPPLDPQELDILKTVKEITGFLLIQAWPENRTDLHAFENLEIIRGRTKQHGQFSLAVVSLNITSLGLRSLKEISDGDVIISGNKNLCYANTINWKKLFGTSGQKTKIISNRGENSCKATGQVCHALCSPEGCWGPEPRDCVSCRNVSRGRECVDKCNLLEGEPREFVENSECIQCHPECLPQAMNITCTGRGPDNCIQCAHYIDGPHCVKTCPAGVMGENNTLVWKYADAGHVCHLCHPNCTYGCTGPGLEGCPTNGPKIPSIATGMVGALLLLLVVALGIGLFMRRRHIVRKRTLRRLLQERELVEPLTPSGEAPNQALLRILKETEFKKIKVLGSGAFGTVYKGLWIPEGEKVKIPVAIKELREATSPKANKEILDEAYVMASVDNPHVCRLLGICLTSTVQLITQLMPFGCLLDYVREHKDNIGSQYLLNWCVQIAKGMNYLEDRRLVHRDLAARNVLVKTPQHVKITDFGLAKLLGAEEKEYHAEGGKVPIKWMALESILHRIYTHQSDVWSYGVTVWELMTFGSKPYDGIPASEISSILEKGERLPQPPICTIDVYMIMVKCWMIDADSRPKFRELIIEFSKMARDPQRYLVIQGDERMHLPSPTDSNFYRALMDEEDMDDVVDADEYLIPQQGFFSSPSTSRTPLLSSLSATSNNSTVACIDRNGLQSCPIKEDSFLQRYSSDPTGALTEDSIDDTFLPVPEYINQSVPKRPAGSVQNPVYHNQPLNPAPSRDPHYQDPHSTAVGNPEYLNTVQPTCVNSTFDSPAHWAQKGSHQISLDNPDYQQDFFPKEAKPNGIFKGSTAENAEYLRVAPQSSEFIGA
T1 sequence (Q06187 whole entry): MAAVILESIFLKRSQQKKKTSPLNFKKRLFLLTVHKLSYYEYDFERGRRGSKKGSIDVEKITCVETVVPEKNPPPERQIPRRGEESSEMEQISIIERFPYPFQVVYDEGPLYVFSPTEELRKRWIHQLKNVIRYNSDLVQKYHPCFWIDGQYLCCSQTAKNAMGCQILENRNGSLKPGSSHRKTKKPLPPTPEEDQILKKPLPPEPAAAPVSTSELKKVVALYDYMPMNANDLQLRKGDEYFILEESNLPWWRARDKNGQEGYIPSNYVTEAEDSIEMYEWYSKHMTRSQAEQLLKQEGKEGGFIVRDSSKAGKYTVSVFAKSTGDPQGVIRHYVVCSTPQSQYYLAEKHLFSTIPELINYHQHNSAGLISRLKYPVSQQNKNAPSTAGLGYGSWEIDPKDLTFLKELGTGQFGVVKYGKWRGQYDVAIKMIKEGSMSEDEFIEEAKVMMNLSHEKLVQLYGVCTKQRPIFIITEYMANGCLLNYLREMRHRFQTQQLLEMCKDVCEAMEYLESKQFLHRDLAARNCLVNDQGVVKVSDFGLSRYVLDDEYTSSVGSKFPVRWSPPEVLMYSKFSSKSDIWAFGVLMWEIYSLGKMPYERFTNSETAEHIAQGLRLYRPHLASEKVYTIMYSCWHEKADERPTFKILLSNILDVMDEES

## C=CC(=O)N1CC[C@@H](n2c(OC)c(-c3ccc(Cl)cc3)c3c(N)ncnc32)C1 [Compound 46, (R)-1-(3-(4-amino-5-(4-chlorophenyl)-6-methoxy-7H-pyrrolo[2,3-d]pyrimidin-7-yl)pyrrolidin-1-yl)prop-2-en-1-one]
BTK
  IC50: < 0.1 µM
LCK
  IC50: 0.1 to 1 µM
EGFR
  IC50: < 0.1 µM

## Cc1c(-c2ccc(Oc3ccccc3)cc2)c2c(N)ncnc2n1[C@@H]1CCN(C(=O)/C=C/CN(C)C)C1 [Compound 15, (R,E)-1-(3-(4-amino-6-methyl-5-(4-phenoxyphenyl)-7H-pyrrolo[2,3-d]pyrimidin-7-yl)pyrrolidin-1-yl)-4-(dimethylamino)but-2-en-1-one]
BTK
  IC50: < 0.1 µM
LCK
  IC50: < 0.1 µM
EGFR
  IC50: 1 to 10 µM

## COc1cc(-c2c(Cl)n(-c3cccc(N(C)C(=O)/C=C/CN(C)C4CC4)c3)c3ncnc(N)c23)ccc1C [Compound 36, (E)-N-(3-(4-amino-6-chloro-5-(3-methoxy-4-methylphenyl)-7H-pyrrolo[2,3-d]pyrimidin-7-yl)phenyl)-4-(cyclopropyl(methyl)amino)-N-methylbut-2-enamide]
BTK
  IC50: < 0.1 µM
LCK
  IC50: 1 to 10 µM
EGFR
  IC50: 1 to 10 µM

## CN(C)C/C=C/C(=O)N1CC[C@@H](n2c(Cl)c(-c3ccc(Cl)cc3)c3c(N)ncnc32)C1 [Compound 40, (R,E)-1-(3-(4-amino-6-chloro-5-(4-chlorophenyl)-7H-pyrrolo[2,3-d]pyrimidin-7-yl)pyrrolidin-1-yl)-4-(dimethylamino)but-2-en-1-one]
BTK
  IC50: < 0.1 µM
LCK
  IC50: 0.1 to 1 µM
EGFR
  IC50: 0.1 to 1 µM

## CN(C/C=C/C(=O)N1CC[C@@H](n2c(F)c(-c3ccc(Oc4ccccc4)cc3)c3c(N)ncnc32)C1)C1CC1 [Compound 5, (R,E)-1-(3-(4-amino-6-fluoro-5-(4-phenoxyphenyl)-7H-pyrrolo[2,3-d]pyrimidin-7-yl)pyrrolidin-1-yl)-4-(cyclopropyl(methyl)amino)but-2-en-1-one]
BTK
  IC50: < 0.1 µM
LCK
  IC50: < 0.1 µM
EGFR
  IC50: 1 to 10 µM

## Cc1c(-c2ccc(Oc3ccccc3)cc2)c2c(N)ncnc2n1[C@@H]1CCN(C(=O)/C=C/CN(C)C2CC2)C1 [Compound 12, (R,E)-1-(3-(4-amino-6-methyl-5-(4-phenoxyphenyl)-7H-pyrrolo[2,3-d]pyrimidin-7-yl)pyrrolidin-1-yl)-4-(cyclopropyl(methyl)amino)but-2-en-1-one]
BTK
  IC50: < 0.1 µM
LCK
  IC50: < 0.1 µM
EGFR
  IC50: 1 to 10 µM
